Key:
[1] = biological target: T1, Amine oxidase [flavin-containing] B (Homo sapiens, UniProt P27338); assay: Inhibition of human recombinant MAO-B using kynuramine as substrate incubated for 20 mins measuring increase in emission signal at 400 nm multimode plate reader assay
T1 sequence (P27338 whole entry): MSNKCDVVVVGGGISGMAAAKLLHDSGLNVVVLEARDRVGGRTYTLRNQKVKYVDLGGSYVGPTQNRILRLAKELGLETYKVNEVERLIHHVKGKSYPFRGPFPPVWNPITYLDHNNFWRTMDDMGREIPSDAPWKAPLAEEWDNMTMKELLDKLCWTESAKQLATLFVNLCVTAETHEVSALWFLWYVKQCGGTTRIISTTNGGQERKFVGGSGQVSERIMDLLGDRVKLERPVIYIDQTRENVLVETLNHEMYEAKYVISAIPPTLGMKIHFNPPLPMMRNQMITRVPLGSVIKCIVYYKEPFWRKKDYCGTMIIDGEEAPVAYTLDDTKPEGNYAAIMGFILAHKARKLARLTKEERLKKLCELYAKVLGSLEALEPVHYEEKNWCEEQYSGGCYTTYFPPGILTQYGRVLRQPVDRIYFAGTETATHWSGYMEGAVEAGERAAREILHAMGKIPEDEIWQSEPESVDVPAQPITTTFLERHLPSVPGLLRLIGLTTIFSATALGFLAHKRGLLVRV

[2] = biological target: T2, Amine oxidase [flavin-containing] A (Homo sapiens, UniProt P21397); assay: Inhibition of human recombinant MAO-A […] as incubated for 20 mins measuring increase in emission signal at 310 nm multimode plate reader assay
T2 sequence (P21397 whole entry): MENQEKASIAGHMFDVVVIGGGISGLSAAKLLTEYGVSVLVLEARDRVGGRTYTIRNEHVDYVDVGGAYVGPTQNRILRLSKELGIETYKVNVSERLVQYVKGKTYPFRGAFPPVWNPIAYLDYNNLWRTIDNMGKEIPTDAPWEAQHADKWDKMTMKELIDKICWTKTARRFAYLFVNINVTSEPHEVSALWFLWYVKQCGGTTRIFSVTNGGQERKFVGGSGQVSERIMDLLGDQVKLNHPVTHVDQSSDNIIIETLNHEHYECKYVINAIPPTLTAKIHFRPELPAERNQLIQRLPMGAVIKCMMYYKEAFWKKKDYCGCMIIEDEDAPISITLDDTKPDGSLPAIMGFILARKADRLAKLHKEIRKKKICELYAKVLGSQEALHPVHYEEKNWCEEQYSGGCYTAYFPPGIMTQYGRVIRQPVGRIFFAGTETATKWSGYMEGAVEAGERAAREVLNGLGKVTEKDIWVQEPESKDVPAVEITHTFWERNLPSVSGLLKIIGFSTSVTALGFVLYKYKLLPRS

Homo sapiens = organism: Homo sapiens; assay: Selectivity index, ratio of IC50 for recombinant human MAO-A to IC50 for recombinant human MAO-B
[3] = biological target: T1, Amine oxidase [flavin-containing] B; assay: Mixed type inhibition of human recombinant MAO-B by Lineweaver-Burk plot analysis

Row | SMILES | IC50 [1] [nM] | IC50 [2] [nM] | Selectivity Index (Homo sapiens) | Ki [3] [nM]
1 | COc1ccc2occ(/C=C/c3ccc(O)cc3)c(=O)c2c1 | 330 | 8700 | – | –
2 | COc1ccc2occ(/C=C/c3cc(OC)c(OC)c(OC)c3)c(=O)c2c1 | 2500 | > 100000 | > 40 | –
3 | O=c1c(/C=C/c2ccc(Cl)cc2)coc2ccccc12 | 5.9 | 390 | 66 | –
4 | COc1ccc(/C=C/c2coc3ccc(OC)cc3c2=O)cc1 | 150 | 35000 | 233 | –
5 | COc1ccc2occ(/C=C/c3ccc(N(C)C)cc3)c(=O)c2c1 | 230 | 59000 | 257 | –
6 | COc1ccc2c(=O)c(/C=C/c3ccc(F)cc3)coc2c1 | 3.1 | 14 | – | –
7 | COc1ccc2occ(/C=C/c3ccc(Cl)cc3)c(=O)c2c1 | 28 | 4100 | 146 | –
8 | COc1ccc2occ(/C=C/c3ccc(OC)c(OC)c3)c(=O)c2c1 | 800 | 61000 | 76 | –
9 | COc1ccc2c(=O)c(/C=C/c3ccc(Cl)cc3)coc2c1 | 2.2 | 25 | 11 | 1.5
10 | COc1ccc2c(=O)c(/C=C/c3cc(OC)c(OC)c(OC)c3)coc2c1 | 21 | 7300 | 348 | –
11 | COc1ccc(/C=C/c2coc3cc(OC)ccc3c2=O)cc1 | 6.8 | 69 | 10 | –
12 | COc1ccc(/C=C/c2coc3ccccc3c2=O)cc1 | 29 | > 100000 | > 3400 | –
13 | COc1ccc(/C=C/c2coc3ccccc3c2=O)cc1OC | 160 | 33000 | 206 | –
14 | COc1ccc2occ(/C=C/c3ccccc3)c(=O)c2c1 | 75 | 2500 | 33 | –
15 | COc1ccc2c(=O)c(/C=C/c3ccccc3)coc2c1 | 16 | 120 | 8 | –
16 | COc1cc(/C=C/c2coc3ccccc3c2=O)cc(OC)c1OC | 230 | 67000 | 291 | –
17 | O=c1c(/C=C/c2ccc(F)cc2)coc2ccccc12 | 8.6 | 620 | 72 | –
18 | COc1ccc2c(=O)c(/C=C/c3ccc(N(C)C)cc3)coc2c1 | 6.1 | 490 | 80 | –
19 | CN(C)c1ccc(/C=C/c2coc3ccccc3c2=O)cc1 | 48 | 42000 | 875 | –
20 | COc1ccc2occ(/C=C/c3ccc(F)cc3)c(=O)c2c1 | 34 | 380 | 11 | –
21 | O=c1c(/C=C/c2ccccc2)coc2ccccc12 | 27 | > 100000 | > 3700 | 18
22 | COc1ccc2c(=O)c(/C=C/c3ccc(O)cc3)coc2c1 | 47 | 22 | – | –
23 | O=c1c(/C=C/c2ccc(O)cc2)coc2ccccc12 | 37 | 2600 | 70 | –
24 | COc1ccc2c(=O)c(/C=C/c3ccc(OC)c(OC)c3)coc2c1 | 33 | 19000 | 576 | –

Reference: ChEMBL document CHEMBL4811301, “Synthesis and biological evaluation of 3-styrylchromone derivatives as selective monoamine oxidase B inhibitors” (Bioorg Med Chem, 2021)
